# From patent US5846742A, “Selecting substances for treating glucocorticoid-mediated inflammation or immune diseases using Tripterygium wilfordii Hook F extracts” (Board of Regents, The University of Texas System, priority 1997, dated 1998)
# Where “and” joins values, the source holds several entries; their conditions need not be identical. Equal entries are not always repeated. Where two headings read alike, the source gives them in different places.
# How the values were obtained:
# T cells [1] = experiment: Antigen (SK)-induced T cell proliferation, wilforonide; assay type: cell-based, human; settings: for IC50: 120 h, read-out: ID50, antigen-induced T cell proliferation; for IC50 / inhibition at 0.01 µg/mL: 5 days
# Protocol: The cells were allowed to culture for five days. The cultures were pulsed with [^3 H]-thymidine for the last 24 hours of culture. […] ID50 were calculated based on the regression formula by using the fx-3600 calculator. T cells cultured with SK or SK+IL-2 or SK+PMA gave cpm of 1.87×10^3, 4.99×10^3 and 6.67×10^3, respectively.
# *T cells were cultured with or without SK(1 mg/ml) or SK plus IL2(50
# μ/ml) or SK plus PMA(.2 ng/ml) in the presence or absence of indicated
# concentrations of wilforonide for 5 days. Cultures were pulsed with
# [^3 H]-thymidine for the last 24 hours. Data represent the mean of th
# experiments. ID50 were calculated based on the regression formula by
# using the fx3600 calculator. T cells cultured with SK or SL + IL2 or SK +
# IL-2R = IL-2R expression by PHA-activated T cells, 924; assay type: cell-based, human
# Solubility of 924 = assay type: physicochemical
# Protocol: The dried woody skinned part of the root of TwHF was extracted with ethanol. The solution was concentrated at reduced pressure, and the residue was dissolved in ethyl acetate. This solution was passed through Al2 O3 with ethanol as an eluent. The eluate was evaporated and the residue chromatographed on silica gel with chloroform, chloroform-ether and ethyl acetate as successive eluent. The fractions eluted with chloroform-ether were purified on a preparative HPLC column packed with Nova-Pak C18 and equipped with a 214 detector. Methanol-water was the mobile phase. A fraction having positive reaction to Kedde reagent was collected and extracted with chloroform. The chloroform solution was evaporated to dryness and the residue crystallized in dichloromethane-hexane to yield 924.
# [2] = system: IL-2 production by T cells; experiment: PHA-induced IL-2 production, wilforonide (924); assay type: cell-based, human; settings: for IL-2, mean: control 21.395
# Protocol: The effects of wilforonide on IL-2 production was also examined. […] Cell-free supernatants were diluted 1 to 80 and the IL-2 content assayed with CTLL-2 cells.
# T cells [3] = experiment: Antigen (SK)-induced T cell proliferation, wilforonide; assay type: cell-based; settings: Homo sapiens, read-out: % inhibition of [3H]-thymidine incorporation
# [4] = Viability of PHA-stimulated T cells, 924; assay type: cell-based, human; settings: t cells; 1,000 ng/ml; 0 ng/ml=22% of control; FIG. 20D; read-out: Cell viability, % of control
# PHA-stimulated T cells = experiment: Viability of PHA-stimulated T cells, 924; assay type: cell-based, human
# T cells [5] = experiment: PHA-induced T cell proliferation, wilforonide (924); assay type: cell-based, human; settings: for Mean cpm: control 42.0
# From the text: The molecular groups responsible for the immune suppressive function of these compounds are unknown, however, the core structure of diterpenoids which may be related to their activity consists of an α-β-unsaturated 5 element lactone which can be identified by Kedde reagents. HPLC was used to fractionate the ethyl acetate extract of TwHF and the Kedde reagents were employed to trace the fractions. Then, the effect of selected fractions on the in vitro IL-2 production and [^3 H]-thymidine incorporation by PHA-activated T cells was determined. Fractions that inhibit these T cell functions were selected and the chromatographic pattern was identified with HPLC. One fraction was further purified with HPLC and crystallized repeatedly; a pure, crystallized compound was obtained and designated "924".
# [^3 H]-thymidine was added for the last 14 hours of culture. Each concentration was run in quadruplicate (4 times) and the results for each concentration averaged to provide a mean. The mean cpm×10^3 values were combined and expressed as a percent of T cell inhibition.
# or absence of the indicated concentrations of wilforonide for 3 days.
# [^3 H]-Thymidine was added for the last 14 hours. Data are from 4
# independent experiments.
compound,measurement,setting,value
"C[C@]12CCC3=C(COC3=O)[C@@H]1CCC(=O)C2 (relative stereo) [Wilforonide, naphtho-[1,2-c] furan-3,7(1H,5H)-dione, 4,5a,6,8,9,9a-hexahydro-5a-methyl(5aR-trans)-[104331-87-5]]",IC50,"T cells [1]; Homo sapiens, T-cell, SK + IL-2 (50 u/ml)",0.476 µg/mL
same,IC50,"T cells [1]; Homo sapiens, T-cell, SK + PMA (0.2 ng/ml)",0.613 µg/mL
same,IC50,"T cells [1]; Homo sapiens, T-cell, SK",0.127 µg/mL
same,inhibition at 0.01 µg/mL,"T cells [1]; Homo sapiens, T-cell, SK + IL-2, 10 ng/ml, read-out: % inhibition of [3H]-thymidine incorporation",19.6%
same,inhibition at 0.5 µg/mL,"T cells [1]; Homo sapiens, T-cell, SK + IL-2, 500 ng/ml, read-out: % inhibition of [3H]-thymidine incorporation",61.7%
same,inhibition at 0.01 µg/mL,"T cells [1]; Homo sapiens, T-cell, SK + PMA, 10 ng/ml, read-out: % inhibition of [3H]-thymidine incorporation",22.7%
same,inhibition at 0.05 µg/mL,"T cells [1]; Homo sapiens, T-cell, SK + PMA, 50 ng/ml, read-out: % inhibition of [3H]-thymidine incorporation",17.7%
same,inhibition at 0.5 µg/mL,"T cells [1]; Homo sapiens, T-cell, SK + PMA, 500 ng/ml, read-out: % inhibition of [3H]-thymidine incorporation",53.3%
same,inhibition at 0.01 µg/mL,"T cells [1]; Homo sapiens, T-cell, SK, 10 ng/ml, read-out: % inhibition of [3H]-thymidine incorporation",42.1%
same,Inhibition of response to SK on adding IL2 or PMA,T cells [1]; low concentrations,partially overcome by adding IL2 or PMA
same,IL-2R expression,IL-2R; 500 ng/ml,did not affect the IL-2R expression
same,IL-2R expression,IL-2R; PHA-activated T cells,no effect
same,Solubility,Solubility of 924,"soluble in ethanol, and ethanol and chloroform"
same,"IL-2, individual experiments 1-4","[2]; 10 ng/ml, PHA 1 μg/ml, overnight",1.628 unit/ml and 20.723 unit/ml and 27.374 unit/ml and 3.385 unit/ml
same,"IL-2, mean",[2]; 10 ng/ml,13.278 unit/ml
same,"IL-2, individual experiments 1-4",[2]; 50 ng/ml,1.664 unit/ml and 26.983 unit/ml and 4.509 unit/ml and 6.042 unit/ml
same,"IL-2, mean",[2]; 50 ng/ml,9.795 unit/ml
same,"IL-2, individual experiments 1-4",[2]; 100 ng/ml,0.800 unit/ml and 11.160 unit/ml and 10.170 unit/ml and 4.982 unit/ml
same,"IL-2, mean",[2]; 100 ng/ml,6.803 unit/ml
same,"IL-2, individual experiments 1-4",[2]; 200 ng/ml,0.850 unit/ml and 10.301 unit/ml and 8.502 unit/ml and 1.773 unit/ml
same,"IL-2, mean",[2]; 200 ng/ml,5.357 unit/ml
same,inhibition at 0.01 µg/mL,"[2]; Homo sapiens, T-cell, 10 ng/ml",37.9%
same,inhibition at 0.05 µg/mL,"[2]; Homo sapiens, T-cell, 50 ng/ml",54.2%
same,inhibition at 0.1 µg/mL,"[2]; Homo sapiens, T-cell, 100 ng/ml",68.2%
same,inhibition at 0.2 µg/mL,"[2]; Homo sapiens, T-cell, 200 ng/ml",75%
same,IC50,"[2]; Homo sapiens, T-cell, PHA 1 μg/ml, overnight, read-out: ID50, PHA-induced IL-2 production",0.0421 µg/mL
same,inhibition at 0.05 µg/mL,"T cells [3]; SK + IL-2, 50 ng/ml",12.4%
same,inhibition at 0.1 µg/mL,"T cells [3]; SK + IL-2, 100 ng/ml",14.5%
same,inhibition at 1 µg/mL,"T cells [3]; SK + IL-2, 1,000 ng/ml",86.2%
same,inhibition at 0.1 µg/mL,"T cells [3]; SK + PMA, 100 ng/ml",20.3%
same,inhibition at 1 µg/mL,"T cells [3]; SK + PMA, 1,000 ng/ml",65.4%
same,inhibition at 0.05 µg/mL,"T cells [3]; SK, 50 ng/ml",44.5%
same,inhibition at 0.1 µg/mL,"T cells [3]; SK, 100 ng/ml",49.1%
same,inhibition at 0.5 µg/mL,"T cells [3]; SK, 500 ng/ml",75.2%
same,inhibition at 1 µg/mL,"T cells [3]; SK, 1,000 ng/ml",84.2%
same,viability,[4],35%
same,Viability of PHA-stimulated T cells,PHA-stimulated T cells; 1 ng/ml up to 1000 ng/ml,did not affect the viability of PHA-stimulated T cells
same,Cell viability,PHA-stimulated T cells; 1 to 500 ng/ml,did not differ significantly in terms of cell viability
same,in vitro ID50/LD50 of T cell proliferation,PHA-stimulated T cells; t cells,more than 10
same,"cpm, individual experiments 1-4","T cells [5]; 10 ng/ml, PHA 0.5 μg/ml, 3 days",23.5 cpm × 10^3 and 37.1 cpm × 10^3 and 57.5 cpm × 10^3 and 36.3 cpm × 10^3
same,Mean cpm,T cells [5]; 10 ng/ml,38.6 cpm × 10^3
same,"cpm, individual experiments 1-4",T cells [5]; 50 ng/ml,30.2 cpm × 10^3 and 35.3 cpm × 10^3 and 57.0 cpm × 10^3 and 44.8 cpm × 10^3
same,Mean cpm,T cells [5]; 50 ng/ml,41.8 cpm × 10^3
same,"cpm, individual experiments 1-4",T cells [5]; 100 ng/ml,13.0 cpm × 10^3 and 37.6 cpm × 10^3 and 55.2 cpm × 10^3 and 26.7 cpm × 10^3
same,Mean cpm,T cells [5]; 100 ng/ml,33.1 cpm × 10^3
same,"cpm, individual experiments 1-4",T cells [5]; 200 ng/ml,6.8 cpm × 10^3 and 33.9 cpm × 10^3 and 56.5 cpm × 10^3 and 26.4 cpm × 10^3
same,Mean cpm,T cells [5]; 200 ng/ml,30.9 cpm × 10^3
same,"cpm, individual experiments 1-4",T cells [5]; 500 ng/ml,0.3 cpm × 10^3 and 19.7 cpm × 10^3 and 30.9 cpm × 10^3 and 11.3 cpm × 10^3
same,Mean cpm,T cells [5]; 500 ng/ml,15.6 cpm × 10^3
same,T cell proliferation,"T cells [5]; 1,000 ng/ml, FIG. 20C",no cell proliferation was evident
same,inhibition at 0.01 µg/mL,"T cells [5]; Homo sapiens, T-cell, 72 h, 10 ng/ml, PHA 0.5 μg/ml, 3 days",8.09%
same,IC50,"T cells [5]; Homo sapiens, T-cell, 72 h, PHA 0.5 μg/ml, 3 days, read-out: ID50, PHA-induced T cell proliferation",0.391 µg/mL
same,inhibition at 0.001 µg/mL,"T cells [5]; Homo sapiens, T-cell, 1 ng/ml, PHA, read-out: Degree of inhibition of T cell proliferation",14.6%
same,inhibition at 0.05 µg/mL,"T cells [5]; Homo sapiens, T-cell, 50 ng/ml, PHA",0.48%
same,inhibition at 0.1 µg/mL,"T cells [5]; Homo sapiens, T-cell, 100 ng/ml, PHA, read-out: % inhibition",21.2%
same,inhibition at 0.1 µg/mL,"T cells [5]; Homo sapiens, T-cell, 100 ng/ml, PHA, read-out: Degree of inhibition of T cell proliferation",54.2%
same,inhibition at 0.2 µg/mL,"T cells [5]; Homo sapiens, T-cell, 200 ng/ml, PHA",26.4%
same,inhibition at 0.5 µg/mL,"T cells [5]; Homo sapiens, T-cell, 500 ng/ml, PHA",62.9%
